Source: article PMC12354831 (Cell Death Discovery, 2025)

How the values were obtained:
[1] = tested on: U251-MG cell-derived xenograft; experiment: Tumor growth in U251-MG cell-derived xenograft model; assay type: in vivo, nude mice (BALB/c-nu); settings: TMZ 40 mg/kg or CAPE 20 mg/kg every 3 days; for effect of fasting on tumor growth under drug treatment: GLUT3-overexpressing tumors, 24 h fast before each dose vs non-fasting; for effect on tumor growth vs saline groups: nude mice
Procedure: All animal studies were approved and supervised by the Ethics Committee for Animal Use and Care at Peking University. Nude mice (BALB/c-nu) were purchased and maintained as previously described. For the establishment of xenograft tumor models, 1 × 10^6 U251-MG cells (either negative vector control or overexpressing GLUT3) were injected into the bilateral axillary fossae of 4-week-old nude mice. After 7 days, when palpable tumors had formed, the mice were randomly divided into six experimental groups (n = 7 per group), and treatment was initiated immediately.
Tumor diameters were measured every 4 days using calipers. At the end of the study, all mice were sacrificed, and the tumors were carefully excised and weighed. Tumor volume was calculated using the formula V = (length*width^2)/2. Data were analyzed using statistical software to evaluate the differences among groups.

GLUT3 N413A = biological target: T1, GLUT3 N413A (Homo sapiens, UniProt P11169, N413A); experiment: TMZ uptake by U251-MG cells stably expressing GLUT3 N413A vs WT GLUT3 (LC-MS/MS); assay type: in vitro ADME
T1 construct: expressed in transfected cells; host or cells: U87 and U343 per methods
T1 sequence (P11169 1-496 N413A): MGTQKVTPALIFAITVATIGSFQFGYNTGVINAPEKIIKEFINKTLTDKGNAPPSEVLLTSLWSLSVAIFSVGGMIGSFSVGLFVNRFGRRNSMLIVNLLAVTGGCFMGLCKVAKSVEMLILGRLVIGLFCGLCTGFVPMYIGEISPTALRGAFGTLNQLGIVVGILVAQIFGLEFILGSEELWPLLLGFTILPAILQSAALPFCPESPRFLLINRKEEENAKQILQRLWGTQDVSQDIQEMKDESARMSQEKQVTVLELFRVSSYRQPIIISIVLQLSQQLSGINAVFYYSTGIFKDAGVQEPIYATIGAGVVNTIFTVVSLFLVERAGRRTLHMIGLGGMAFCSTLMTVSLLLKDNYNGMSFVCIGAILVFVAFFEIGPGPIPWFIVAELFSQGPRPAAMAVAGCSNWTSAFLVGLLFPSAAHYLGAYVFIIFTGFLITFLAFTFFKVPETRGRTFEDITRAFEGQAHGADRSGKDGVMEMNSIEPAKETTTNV
Procedure: A total of 6 × 10^6 cells were seeded into each well of a 6 cm Petri dish and cultured at 37 °C in a humidified atmosphere containing 5% CO2 for 8 h. The cells were then washed twice with PBS (137 mM NaCl, 2.7 mM KCl, 10 mM Na2HPO4, 1.8 mM KH2PO4, pH 7.4) and incubated in transport buffer (140 mM NaCl, 5 mM KCl, 2 mM MgCl2, 2 mM CaCl2, 30 mM Tris-HCl, pH 7.4) for 15 min at 37 °C. […] Cell supernatants were collected and stored at 4 °C for subsequent extraction. The harvested cells were washed three times with PBS and extracted with 500 µL of 80% methanol for 30 min at −80 °C. The cell lysate was then centrifuged at 14,000 × g for 5 min at 4 °C, followed by 2 min of sonication. The supernatant was transferred to a new centrifuge tube. For LC-MS/MS analysis, the cell supernatants and cell lysates were diluted at a specific ratio. A total of 100 µL of each sample was mixed with 100 µL of acetonitrile (or standard reagent) and 300 µL of internal standard solution (^2H3-TMZ 100 ng/mL and ^2H11-CAPE 20 ng/mL dissolved in acetonitrile). […] Quality control (QC) samples were prepared and analyzed alongside the experimental samples to monitor the stability and repeatability of the instrument. QC samples were inserted regularly and analyzed every 6–12 samples. Each experiment was repeated 5–6 times. […]

| SMILES | effect of fasting on tumor growth under drug treatment [1] | effect on tumor growth vs saline groups [1] | reduction in drug uptake (GLUT3 N413A) |
| --- | --- | --- | --- |
| CCCCCOC(=O)Nc1nc(=O)n([C@@H]2O[C@H](C)[C@@H](O)[C@H]2O)cc1F [CAPE, capecitabine] | significantly inhibited tumor growth | reducing tumor weights and volumes | – |
| Cn1nnc2c(C(N)=O)ncn2c1=O [TMZ] | significantly inhibited tumor growth | reducing tumor weights and volumes | 40–50% |
